From US20260103465A1, “GLYCOGEN SYNTHASE KINASE 3 INHIBITORS AND USES THEREOF” (The Broad Institute, Inc., priority 2023, published 2026)

Tests used:
[1] = molecular target: T1, GSK3a (GST-full length GSK3a) (Homo sapiens, UniProt P49840); assay: GSK3a TR-FRET kinase inhibition assay; type: biochemical; details: 4 μM ATP; read-out: GSK3α TR-FRET 4 μM ATP GMean IC50
T1 construct: GST-full length GSK3a [SignalChem G08-10G]; purchased SignalChem G08-10G
Summary of the method: (§1)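 GST-tagged full-length human kinase (1 nM), pre-incubated 30 min with compound, then reacted 100 min at ambient temperature at pH 7.5 with 200 nM biotinylated phospho-S645 glycogen synthase 631–650 peptide and ATP at 2 μM–1 mM. After EDTA quench, Tb-pSer641 antibody/streptavidin-d2 TR-FRET 665/615 ratio fitted for IC50.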

[2] = Human liver microsomal stability; type: in vitro ADME; details: human liver microsomes; Table 4
Summary of the method: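 Compound incubated at 1 µM with human liver microsomes for 60 min at 37 °C, in duplicate. Percent remaining derived from compound level at 60 min relative to 0 min. Controls: microsomes with NADPH and no compound; compound with microsomes lacking NADPH.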

[3] = test system: MDR1-MDCK cell monolayers; assay: MDR1/MDCK permeability assay; type: in vitro ADME; details: Table 4; for MDCK Permeability (MDR1-MDCK); Mean; Papp(A-B) (10^−6 cm/s): A to B; for MDCK Permeability (MDR1-MDCK); Mean; Papp(B-A) (10^−6 cm/s): B to A; for MDCK Permeability (MDR1-MDCK); Mean; P. Ratio(B-A/A-B) Efflux Ratio: Papp B-A/A-B
Summary of the method: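 Confluent MDR1-MDCK monolayers (7–11 days old), compound dosed at 5 μM in HBSSg (≤1% DMSO) apically or basolaterally, pH 7.4 both sides, receiver with 1% BSA, N=2. Both sides sampled at 120 min and quantified by LC-MS/MS; Papp in each direction, efflux ratio B-A/A-B and recovery reported.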

[4] = molecular target: T2, GSK3b (GST-full length GSK3b) (Homo sapiens, UniProt P49841); assay: GSK3b TR-FRET kinase inhibition assay; type: biochemical; details: 2 μM ATP; read-out: GSK3β TR-FRET 2 μM ATP GMean IC50
T2 construct: GST-full length GSK3b: [SignalChem G08-9G]; purchased SignalChem G08-9G
Summary of the method: as §1

T2 sequence (P49841 whole entry): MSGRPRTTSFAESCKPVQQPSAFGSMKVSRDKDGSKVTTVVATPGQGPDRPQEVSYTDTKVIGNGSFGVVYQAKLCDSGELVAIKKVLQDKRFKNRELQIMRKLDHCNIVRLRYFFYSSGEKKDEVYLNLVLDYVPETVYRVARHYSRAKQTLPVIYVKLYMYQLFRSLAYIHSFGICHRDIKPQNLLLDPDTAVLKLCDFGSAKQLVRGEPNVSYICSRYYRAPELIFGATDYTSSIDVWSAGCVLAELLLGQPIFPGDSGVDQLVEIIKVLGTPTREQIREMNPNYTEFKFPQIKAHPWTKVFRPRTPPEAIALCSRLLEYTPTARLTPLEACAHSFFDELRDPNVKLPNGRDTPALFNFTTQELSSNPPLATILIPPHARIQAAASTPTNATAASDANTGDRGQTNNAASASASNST
T1 sequence (P49840 whole entry): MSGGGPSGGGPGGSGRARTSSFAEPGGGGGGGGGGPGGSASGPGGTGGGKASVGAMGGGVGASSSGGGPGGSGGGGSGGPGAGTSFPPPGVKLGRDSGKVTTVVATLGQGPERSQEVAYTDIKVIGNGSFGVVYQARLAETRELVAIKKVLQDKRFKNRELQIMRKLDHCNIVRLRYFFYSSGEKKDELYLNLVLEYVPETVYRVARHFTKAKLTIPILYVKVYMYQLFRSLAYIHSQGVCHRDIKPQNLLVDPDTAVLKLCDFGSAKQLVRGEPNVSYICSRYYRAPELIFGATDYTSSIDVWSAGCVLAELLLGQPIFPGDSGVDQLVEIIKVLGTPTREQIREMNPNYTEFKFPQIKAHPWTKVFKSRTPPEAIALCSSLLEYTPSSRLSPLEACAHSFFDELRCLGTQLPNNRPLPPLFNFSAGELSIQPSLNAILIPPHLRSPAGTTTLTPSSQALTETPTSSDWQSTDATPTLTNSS

Row | Structure (SMILES) | IC50 [1] [nM] | Microsome Stability (Human) (DMPK_BIIB); Mean; in vitro t1/2 [2] [min] | MDCK Permeability (MDR1-MDCK); Mean; Papp(A-B) (10^−6 cm/s) [3] | MDCK Permeability (MDR1-MDCK); Mean; Papp(B-A) (10^−6 cm/s) [3] | MDCK Permeability (MDR1-MDCK); Mean; P. Ratio(B-A/A-B) Efflux Ratio [3] | IC50 [4] [nM]
1 | CCC1(c2cccc(-c3ccncc3C)c2)C2=C(CC(C)(C)CC2=O)Nc2ncc(F)cc21 (single isomer, unassigned) [Compound 1031B] | ≤ 100 | 19 | 6.2 10^−6 cm/s | 22 10^−6 cm/s | 3.6 | ≤ 100
2 | CCC1(c2cccc(-c3cn(C)nc3C)c2)C2=C(CC(C)(C)CC2=O)Nc2ncc(F)cc21 (single isomer, unassigned) [Compound 1032B] | ≤ 100 | 6.4 | 2.3 10^−6 cm/s | 26 10^−6 cm/s | 11 | ≤ 100
3 | CCC1(c2cccc(-c3ccnc4c3CCC4)c2)C2=C(CC(C)(C)CC2=O)Nc2ncccc21 (single isomer, unassigned) [Compound 1034B] | ≤ 100 | 4.1 | 7.6 10^−6 cm/s | 25 10^−6 cm/s | 3.3 | ≤ 100
4 | CCC1(c2cccc(-c3ccncc3OC)c2)C2=C(CC(C)(C)CC2=O)Nc2ncc(F)cc21 (single isomer, unassigned) [Compound 1037B] | ≤ 100 | 5.6 | 2.7 10^−6 cm/s | 26 10^−6 cm/s | 9.6 | ≤ 100
5 | CCC1(c2cccc(-c3cncn3C(C)C)c2)C2=C(CC(C)(C)CC2=O)Nc2ncc(F)cc21 (single isomer, unassigned) [Compound 1038A] | ≤ 100 | 16 | 0.90 10^−6 cm/s | 41 10^−6 cm/s | 43 | ≤ 100
6 | CCC1(c2cccc(-c3cncn3C(C)C)c2)C2=C(CC(C)(C)CC2=O)Nc2ncc(F)cc21 (single isomer, unassigned) [Compound 1038B] | ≤ 100 | 13 | 0.70 10^−6 cm/s | 34 10^−6 cm/s | 49 | 100 to 1000

Further lines, results first:

Row | IC50 [1] [nM] | Microsome Stability (Human) (DMPK_BIIB); Mean; in vitro t1/2 [2] [min] | MDCK Permeability (MDR1-MDCK); Mean; Papp(A-B) (10^−6 cm/s) [3] | MDCK Permeability (MDR1-MDCK); Mean; Papp(B-A) (10^−6 cm/s) [3] | MDCK Permeability (MDR1-MDCK); Mean; P. Ratio(B-A/A-B) Efflux Ratio [3] | IC50 [4] [nM] | Structure (SMILES)
7 | ≤ 100 | 4.3 | 2.8 10^−6 cm/s | 31 10^−6 cm/s | 11 | 100 to 1000 | CCC1(c2cccc(-c3cc(C)nn3C)c2)C2=C(CC(C)(C)CC2=O)Nc2ncccc21 (single isomer, unassigned) [Compound 1024B]
8 | ≤ 100 | 5.5 | 4.6 10^−6 cm/s | 42 10^−6 cm/s | 9.1 | ≤ 100 | CCC1(c2cccc(-c3ccnn3C)c2)C2=C(CC(C)(C)CC2=O)Nc2ncc(F)cc21 (single isomer, unassigned) [Compound 1025A]
9 | ≤ 100 | 3.1 | 5.1 10^−6 cm/s | 30 10^−6 cm/s | 5.8 | 100 to 1000 | CCC1(c2cccc(-c3cc(C)ncc3C)c2)C2=C(CC(C)(C)CC2=O)Nc2ncccc21 (single isomer, unassigned) [Compound 1027B]
